Laboratory results taken from ChEMBL document CHEMBL1131926, “Synthesis and thromboxane A2 antagonistic activity of indane derivatives” (Bioorg Med Chem Lett, 1999).

Columns and labels:
Thromboxane A2 receptor = biological target: T1, Thromboxane A2 receptor (Rattus norvegicus, UniProt P34978); assay: In vitro thromboxane A2 antagonistic activity on U-46619 (0.1 uM) induced contraction of rat aorta; format: functional, tissue-based
T1 sequence (P34978 whole entry): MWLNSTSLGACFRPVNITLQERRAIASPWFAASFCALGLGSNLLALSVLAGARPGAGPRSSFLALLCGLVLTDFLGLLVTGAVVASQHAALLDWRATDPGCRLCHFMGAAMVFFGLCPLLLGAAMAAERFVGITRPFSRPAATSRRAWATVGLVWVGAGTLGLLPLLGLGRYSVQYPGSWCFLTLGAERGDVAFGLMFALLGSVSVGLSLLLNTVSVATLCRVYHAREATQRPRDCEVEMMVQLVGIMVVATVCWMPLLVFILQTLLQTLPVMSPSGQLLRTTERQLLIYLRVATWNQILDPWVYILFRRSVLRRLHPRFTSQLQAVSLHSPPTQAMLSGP

Cavia porcellus [1] = assay: Extra vivo inhibitory activity of compound (0.3 mg/kg p.o.) on the aggregation of guinea pig platelets induced by U-46619 (1 uM); format: functional
Cavia porcellus [2] = assay: Ex vivo inhibitory activity (0.3 mg/kg p.o.) on the aggregation of guinea pig platelets induced by arachidonic acid (100 uM); format: functional
Cavia porcellus [3] = species on record: Cavia porcellus; assay: In vitro inhibitory activity for the aggregation of guinea pig platelets induced by U-46,619 (4 uM) was determined; format: functional
Homo sapiens = species on record: Homo sapiens; assay: In vitro inhibitory activity for the aggregation of human platelets induced by U-46,619 (1 uM) was determined; format: functional
Cavia porcellus [4] = species on record: Cavia porcellus; assay: Extra vivo inhibitory activity for the aggregation of guinea pig platelets induced by U-46,619 (4 uM) was determined; format: functional, organism-based
Cavia porcellus [5] = species on record: Cavia porcellus; assay: Extra vivo inhibitory activity of compound for the aggregation of guinea pig platelets induced by U-46,619 (4 uM) was determined; format: functional, organism-based

SMILES	IC50 (Thromboxane A2 receptor) [nM]	Inhibition (Cavia porcellus [1]) [%]	Inhibition (Cavia porcellus [2]) [%]	also measured
O=C(O)Cc1ccc2c(c1)CC(CNS(=O)(=O)c1cccnc1)C2 (configuration not stated)	1900			
O=C(O)Cc1ccc2c(c1)CC(CCCCNS(=O)(=O)c1ccc(Cl)cc1)C2 (configuration not stated)	977			
O=C(O)Cc1ccc(CCNS(=O)(=O)c2ccc(Cl)cc2)cc1 [DALTROBAN]		55	25	IC50 (Cavia porcellus [3]): 500 nM; IC50 (Homo sapiens): 370 nM; ED50 (Cavia porcellus [4]): 0.53 mg/kg
O=C(O)Cc1ccc2c(c1)CC(CNS(=O)(=O)Cc1ccccc1)C2 (configuration not stated)	5900			
O=C(O)Cc1ccc2c(c1)CC(CNS(=O)(=O)c1cccc3ccccc13)C2 (configuration not stated)	295			
O=C(O)c1ccc2c(c1)CC(CCCCNS(=O)(=O)c1ccc(Cl)cc1)C2 (configuration not stated)	> 479			
O=C(O)Cc1ccc2c(c1)CC(CNS(=O)(=O)c1ccc(Cl)cc1)O2 (configuration not stated)	141			
O=C(O)Cc1ccc2c(c1)CC(CCCNS(=O)(=O)c1ccc(Cl)cc1)C2 (configuration not stated)	513			
O=C(O)c1ccc2c(c1)CC(CCCNS(=O)(=O)c1ccc(Cl)cc1)C2 (configuration not stated)	85.1			
CCCCCS(=O)(=O)NCC1Cc2ccc(CC(=O)O)cc2C1 (configuration not stated)	1400			
O=C(O)c1ccc2c(c1)CC(CCNS(=O)(=O)c1ccc(Cl)cc1)C2 (configuration not stated)	66.1			
O=C(O)Cc1ccc2c(c1)CC(CNS(=O)(=O)C1CCCCC1)C2 (configuration not stated)	1200			
O=C(O)Cc1ccc2c(c1)CC(CNS(=O)(=O)c1cccs1)C2 (configuration not stated)	85.1			

Now from value to compound, other results behind:

IC50 (Thromboxane A2 receptor) [nM]	SMILES	Inhibition (Cavia porcellus [1]) [%]	Inhibition (Cavia porcellus [2]) [%]	also measured
22.4	O=C([O-])Cc1ccc2c(c1)CC(CNS(=O)(=O)c1ccc3ccccc3c1)C2.[Na+] (configuration not stated)	100	100	IC50 (Cavia porcellus [3]): 310 nM; IC50 (Homo sapiens): 290 nM; ED50 (Cavia porcellus [4]): 0.13 mg/kg
38.9	O=C([O-])CCCc1ccc2c(c1)CC(CNS(=O)(=O)c1ccc(Cl)cc1)C2.[Na+] (configuration not stated)	100	100	IC50 (Cavia porcellus [3]): 230 nM; IC50 (Homo sapiens): 2690 nM; ED50 (Cavia porcellus [5]): 0.083 mg/kg
12.9	O=C(O)Cc1ccc2c(c1)CC(CNS(=O)(=O)c1ccccc1)C2 (configuration not stated)			
31.6	O=C([O-])Cc1ccc2c(c1)CC(CCNS(=O)(=O)c1ccc(Cl)cc1)C2.[Na+] (configuration not stated)	96	83	
35.5	O=C(O)CCCCc1ccc2c(c1)CC(CNS(=O)(=O)c1ccc(Cl)cc1)C2 (configuration not stated)			
3.02	O=C([O-])Cc1ccc2c(c1)CC(CNS(=O)(=O)c1ccc(Cl)cc1)C2.[Na+] (configuration not stated)	100	100	IC50 (Cavia porcellus [3]): 270 nM; IC50 (Homo sapiens): 280 nM; ED50 (Cavia porcellus [5]): 0.063 mg/kg
26.3	O=C([O-])c1ccc2c(c1)CC(CNS(=O)(=O)c1ccc(Cl)cc1)C2.[Na+] (configuration not stated)	58	29	
2.19	O=C(O)Cc1ccc2c(c1)CC(NS(=O)(=O)c1ccc(Cl)cc1)C2 (configuration not stated)			
14.8	O=C([O-])CCc1ccc2c(c1)CC(CNS(=O)(=O)c1ccc(Cl)cc1)C2.[Na+] (configuration not stated)	98	57	
